Laboratory results from the supplement of paper PMC13380429.

Tests used:
Settings in all cases: 72 h
Vero E6 [1] = assay: relative viability EC50 (midpoint between 100% and the lowest measured viability); higher = less toxic
Calu-3 [2] = assay: as above
U2OS [3] = assay: as above
HepG2 [4] = assay: as above
Caco-2 [5] = assay: as above
Vero E6 [6] = assay: drug sensitivity score (DSS) for viability; higher = more toxic; extreme values may be limits of the assay
Calu-3 [7] = assay: as above
U2OS [8] = assay: as above
HepG2 [9] = assay: as above
Caco-2 [10] = assay: as above
Vero E6 [11] = assay: cell viability relative to DMSO; higher = less toxic
Calu-3 [12] = assay: as above
U2OS [13] = assay: as above
HepG2 [14] = assay: as above
Caco-2 [15] = assay: as above

SMILES | relative viability EC50 (Vero E6 [1]) [µM] | relative viability EC50 (Calu-3 [2]) [µM] | relative viability EC50 (U2OS [3]) [µM] | relative viability EC50 (HepG2 [4]) [µM] | relative viability EC50 (Caco-2 [5]) [µM] | drug sensitivity score (Vero E6 [6]) | drug sensitivity score (Calu-3 [7]) | drug sensitivity score (U2OS [8]) | drug sensitivity score (HepG2 [9]) | drug sensitivity score (Caco-2 [10]) | cell viability (Vero E6 [11]; 1 nM) [%] | cell viability (Vero E6 [11]; 10 nM) [%] | cell viability (Vero E6 [11]; 100 nM) [%] | cell viability (Vero E6 [11]; 1000 nM) [%] | cell viability (Vero E6 [11]; 10000 nM) [%] | cell viability (Calu-3 [12]; 1 nM) [%] | cell viability (Calu-3 [12]; 10 nM) [%] | cell viability (Calu-3 [12]; 100 nM) [%] | cell viability (Calu-3 [12]; 1000 nM) [%] | cell viability (Calu-3 [12]; 10000 nM) [%] | cell viability (U2OS [13]; 1 nM) [%] | cell viability (U2OS [13]; 10 nM) [%] | cell viability (U2OS [13]; 100 nM) [%] | cell viability (U2OS [13]; 1000 nM) [%] | cell viability (U2OS [13]; 10000 nM) [%] | cell viability (HepG2 [14]; 1 nM) [%] | cell viability (HepG2 [14]; 10 nM) [%] | cell viability (HepG2 [14]; 100 nM) [%] | cell viability (HepG2 [14]; 1000 nM) [%] | cell viability (HepG2 [14]; 10000 nM) [%] | cell viability (Caco-2 [15]; 1 nM) [%] | cell viability (Caco-2 [15]; 10 nM) [%] | cell viability (Caco-2 [15]; 100 nM) [%] | cell viability (Caco-2 [15]; 1000 nM) [%] | cell viability (Caco-2 [15]; 10000 nM) [%]
O=C(O)c1ccc(O)c2ncccc12 [IOX1] | > 10 | > 10 | > 10 | > 10 | > 10 | 0 | 0 | 0 | 0 | 0 | 98 | 92.3 | 103 | 101 | 106 | 97.6 | 99.5 | 98.2 | 105 | 86.7 | 99.9 | 100 | 100 | 103 | 99.7 | 110 | 90.1 | 87.4 | 101 | 94.7 | 89 | 97.7 | 97.6 | 104 | 102
C[C@]12CC[C@H]3[C@@H](CC[C@]4(O)C[C@@H](O)CC[C@]34C=O)[C@@]1(O)CC[C@@H]2C1=CC(=O)OC1 [K-strophanthidin] | 0.151 | 2.28 | 1.43 | 0.807 | 0.975 | 21.8 | 5.4 | 9.3 | 11.1 | 7.3 | 99.5 | 98.8 | 72.6 | 1.9 | 0.9 | 98.2 | 102 | 107 | 92 | 25.8 | 96.9 | 98.7 | 96.6 | 72.4 | 5.2 | 96.4 | 88.6 | 102 | 46.2 | 14.8 | 87.6 | 110 | 99.4 | 68.5 | 38.8
N=C(N)SCCc1ccc(OCc2ccc([N+](=O)[O-])cc2)cc1 [KB-R7943] | > 10 | > 10 | > 10 | > 10 | > 10 | 0 | 0 | 0 | 1.7 | 0 | 99.7 | 101 | 99.2 | 97.4 | 90.4 | 104 | 110 | 93.5 | 99.6 | 98.4 | 96.5 | 105 | 98.3 | 105 | 102 | 96.2 | 108 | 108 | 90.3 | 78.8 | 88.7 | 103 | 99.2 | 97.2 | 94.5
CSc1ccccc1Nc1nc(N2CCNCC2)nc2c(NCC3CC3)ncnc12 [KHK-IN-1] | 2.26 | 2.7 | 3.04 | 2.47 | 3.39 | 7.3 | 6.4 | 5.8 | 6.9 | 5.2 | 101 | 98.1 | 96.1 | 89.1 | 0.1 | 99.5 | 95.4 | 106 | 94.1 | 0.2 | 97.6 | 98.7 | 95.7 | 98.2 | 0.1 | 104 | 91 | 94.1 | 91.6 | 0 | 103 | 107 | 98.7 | 104 | 0.6
O=C(Nc1ccccc1C(=O)Nc1ccc(CCO)cc1)c1ccc([N+](=O)[O-])cc1 [KS-176] | > 10 | > 10 | > 10 | > 10 | > 10 | 0 | 0 | 0 | 0.1 | 0 | 98.2 | 102 | 99.2 | 92.6 | 93.1 | 100 | 87.9 | 98.1 | 102 | 91.5 | 96.7 | 104 | 97.6 | 97.8 | 93.4 | 94 | 95 | 96.3 | 95.2 | 83.2 | 94 | 94.8 | 87.9 | 97.5 | 90.6
N=C(N)NCCC[C@H](N)C(=O)O [L-arginine] | > 10 | > 10 | > 10 | > 10 | > 10 | 0 | 0 | 0 | 0 | 0 | 97.2 | 99.2 | 102 | 103 | 102 | 104 | 95.7 | 104 | 99 | 99.3 | 105 | 94.9 | 99.6 | 94.6 | 101 | 95.3 | 96.5 | 95.5 | 96 | 89.4 | 97.6 | 114 | 96.9 | 107 | 98.9
N[C@@H](CS(=O)O)C(=O)O [L-cysteinesulfinic-acid] | > 10 | > 10 | > 10 | > 10 | > 10 | 0 | 0 | 0 | 0.2 | 0 | 91 | 95.8 | 93.2 | 95.1 | 102 | 94 | 97.3 | 105 | 111 | 107 | 99.5 | 97.3 | 98.5 | 106 | 101 | 93.5 | 90.9 | 77.8 | 89.9 | 102 | 96.8 | 93.2 | 102 | 105 | 101
CN1CCN(C(=O)C2C(C(=O)O)[C@H]3CC[C@@H]2O3)CC1 (stereo not given in full) [LB-100] | > 10 | > 10 | > 10 | > 10 | 1.58 | 0 | 0.5 | 0 | 0 | 5.9 | 98.3 | 101 | 93.1 | 99 | 106 | 95.6 | 91.5 | 106 | 92.8 | 86.7 | 103 | 92.9 | 99.4 | 96.2 | 95.6 | 98.6 | 97.3 | 109 | 96.6 | 102 | 103 | 85.7 | 99.8 | 84.7 | 36.5
CS(=O)(=O)OCOS(C)(=O)=O [MDMS] | > 10 | > 10 | > 10 | > 10 | > 10 | 0 | 0 | 0 | 0 | 0 | 99.8 | 98.4 | 102 | 98.7 | 101 | 102 | 103 | 95.9 | 100 | 97.7 | 100 | 102 | 99.6 | 106 | 104 | 109 | 97.1 | 112 | 112 | 107 | 104 | 105 | 98.1 | 99.7 | 101
OCCc1ccc(OCCn2ccnc2)cc1 [MR-948] | > 10 | > 10 | > 10 | > 10 | > 10 | 0 | 0 | 0 | 0 | 0 | 90 | 98.6 | 94.8 | 95 | 107 | 96.4 | 99 | 97.6 | 105 | 104 | 99.4 | 99.9 | 98.6 | 96 | 96.8 | 89.2 | 104 | 96.7 | 106 | 106 | 94.9 | 93.1 | 86.3 | 108 | 99.8
Cc1cc(-c2nncc3c(C(C)(C)C)c(OCc4ncnn4C)nn23)no1 [MRK-016] | > 10 | > 10 | > 10 | > 10 | > 10 | 0 | 0 | 0 | 0 | 0 | 100 | 102 | 98.5 | 97.6 | 94.5 | 104 | 111 | 108 | 93.9 | 100 | 101 | 104 | 99.1 | 101 | 102 | 105 | 94.9 | 104 | 98.1 | 96.8 | 97.7 | 104 | 96.6 | 89 | 97.2
NS(=O)(=O)c1cccc2c1c([N+](=O)[O-])cc1nc(O)c(O)nc12 [NBQX] | > 10 | > 10 | > 10 | > 10 | > 10 | 0 | 0 | 0 | 0 | 0 | 103 | 100 | 101 | 101 | 99.8 | 101 | 85.9 | 92.4 | 93.9 | 103 | 104 | 106 | 98.5 | 103 | 102 | 101 | 105 | 101 | 92.7 | 106 | 102 | 99.3 | 97 | 95.6 | 102
Nc1ncc2c(n1)CC(c1ccco1)CC2=O (stereo not given) [NKY-80] | > 10 | > 10 | > 10 | > 10 | > 10 | 0 | 0 | 0 | 0 | 0 | 101 | 104 | 100 | 97.7 | 101 | 106 | 96.1 | 110 | 101 | 94.8 | 96.4 | 97.3 | 99.7 | 97.6 | 100 | 103 | 105 | 109 | 105 | 91 | 97 | 98.3 | 102 | 86.4 | 97.6
NC(=O)CN1CC[C@@H](NC(=O)[C@@H]2CCCN2)C1=O [PAOPA] | > 10 | > 10 | > 10 | > 10 | > 10 | 0 | 0 | 0 | 0 | 0 | 95.4 | 97.8 | 92.5 | 101 | 104 | 98.1 | 99.6 | 106 | 94.2 | 106 | 100 | 102 | 102 | 105 | 95.2 | 89.1 | 109 | 97 | 100 | 108 | 100 | 99.7 | 100 | 134 | 96.7
N#Cc1ccccc1-c1cc(-c2ccccn2)cn(-c2ccccc2)c1=O [Perampanel] | > 10 | > 10 | > 10 | > 10 | > 10 | 0 | 0 | 0 | 0 | 0 | 92.1 | 101 | 95.4 | 96.9 | 92.4 | 90.5 | 97.5 | 96.5 | 103 | 95.6 | 94 | 94 | 99.6 | 96.2 | 99.7 | 98.7 | 108 | 104 | 105 | 119 | 90.5 | 106 | 97.5 | 93.6 | 104
